Like-named read-outs stand apart in the source and are kept apart here.
Legend:
[1] = In vivo administration test 1: intravenous administration, plasma concentration by LC-MS/MS; design: species or system cynomolgus monkeys; conditions: for half-life / AUC / ke: male cynomolgus monkeys, intravenous, single dose 1 mg/kg, plasma
Experimental: Each enantiomer (S(+) form or R(−) form) of MA5 was dissolved in a mixed solution of physiological saline and 0.1 N sodium hydroxide (9:1), and filtered and sterilized by using a 0.22 μm filter to prepare a solution containing 2 mL/kg of each enantiomer of MA5. Next, the solution containing each enantiomer of MA5 was intravenously administered to each of three 4- to 5-year-old male cynomolgus monkeys at a single dose of 1 mg/kg. As a control, a solution containing no enantiomer of MA5 was also administered in the same manner. […] The analysis conditions for LC-MS/MS are as follows.
As an ionization unit, an apparatus in which NANOSPACESI-2 (manufactured by OSAKA SODA CO., LTD.) as a high-performance liquid chromatograph was connected to a triple quadrupole mass spectrometer (TSQ Quantum Ultra, manufactured by Thermo Fisher Scientific Inc.) equipped with an ESI probe was used. The S(+) form of MA5 (S-(+)-MA5) and the R(−) form of MA5 (R-(−)-MA5), which are substances to be analyzed, were subjected to quantitative analysis by the internal standard method using their respective stable isotopes S-(+)-MA5-d6 and R-(−)-MA5-d6. […] AD-3R (150×2.1 mm i.d., 3.0 μm particle size, manufactured by Daicel Corporation) was used as the analytical column, and CAPCELL C8UG120 (10×2.0 mm i.d., 5.0 μm particle size, manufactured by OSAKA SODA CO., LTD.) was used as the guard column. The column oven temperature was 35° C. Formic acid/water (0.1/100 [v/v]) (solution A)/acetonitrile (solution B) was used as the mobile phase, and the flow rate was 200 μL/min. The measurement was carried out under an isocratic condition in which a single composition of solution A/solution B (57/43 [v/v]) was used for elution. Solution A/solution B (57/43 [v/v]) was used until the analysis time reached 9.5 minutes, and solution A/solution B (10/90 [v/v]) was used after the analysis time reached 9.7 minutes. In addition, a system for washing the column with solution A/solution B (10/90 [v/v]) was incorporated while the analysis time elapsed was 9.7 minutes to 11.7 minutes, and the column was equilibrated with solution A/solution B (57/43 [v/v]) while the analysis time elapsed was 11.8 minutes to 15 minutes. The retention time was 6.95 minutes for S-(+)-MA5, 6.80 minutes for S-(+)-MA5-d6, 8.69 minutes for R-(−)-MA5, and 8.56 minutes for R-(−)-MA5-d6.
The MS conditions were detected in negative ion mode, a spray voltage set to 2.5 kV, a vaporizer temperature set to 250° C., and an ion transfer tube temperature set to 250° C. The precursor ion>product ion SRM channel was set to “m/z 328.0>116.2” for MA5 and “m/z 334.0>121.1” for MA5-d6. The collision energy for generating a product ion was set to 12 eV for MA5 and 17 eV for MA5-d6. Waveform analysis and quantitative calculation by the internal standard method were carried out by using Xcalibur (manufactured by Thermo Fisher Scientific Inc.).

[2] = Physical properties: coloration and degradation of dissolution solutions; type: physicochemical
[3] = Physical properties: solubility in solvents; type: physicochemical
[4] = cynomolgus monkey, read-out: AUC value

SMILES: O=C(C[C@@H](C(=O)O)c1c[nH]c2ccccc12)c1ccc(F)cc1F [R(−) form of MA5, 4-(2,4-difluorophenyl)-2-(1H-indol-3-yl)-4-oxo-butanoic acid]
- half-life ([1]; cynomolgus monkey): 1.1 h
- AUC [1, 4]: 12000 ng·h/mL
- AUC [1]: 12000 ng·h/mL
- ke [1]: 0.63 h⁻¹

SMILES: O=C(C[C@H](C(=O)O)c1c[nH]c2ccccc12)c1ccc(F)cc1F [S(+) form of MA5, 4-(2,4-difluorophenyl)-2-(1H-indol-3-yl)-4-oxo-butanoic acid]
- degradation product on silica gel TLC plate ([2]; alcohol-chloroform dissolution solution): a large amount of a degradation product was generated
- degradation product on silica gel TLC plate ([2]; dissolution solution developed immediately): no degradation product was generated
- degradation product on silica gel TLC plate ([2]; dissolution solution spotted and developed after some time): a degradation product appeared
- coloration of dissolution solution ([2]; ethanol, isopropanol, acetone, acetonitrile, ethyl acetate, 50% acetonitrile aqueous solution, or 0.1% formic acid-containing acetonitrile solution, refrigerated for about a week): does not become colored
- degradation product on silica gel TLC plate ([2]; ethyl acetate dissolution solution): not easily generated
- stability under a light, acid, or alkali condition ([2]; light, acid, or alkali condition): undergoes coloration and degradation
- coloration of dissolution solution ([2]; methanol, dichloromethane, chloroform, 50% methanol aqueous solution, or 0.1% formic acid-containing methanol solution, refrigerated for about a week): colored pale yellow
- coloration of dissolution solution ([2]; mixed solvent of an alcohol (methanol, ethanol, or isopropanol) and chloroform, the day after preparation): colored yellow
- solubility ([3]; in a 50% acetonitrile aqueous solution): slightly soluble
- solubility ([3]; in a 50% methanol aqueous solution): sparingly soluble
- solubility ([3]; in acetone, acetonitrile, ethyl acetate, chloroform, dichloromethane, methanol, ethanol, and isopropanol): easily soluble
- R(−) form of MA5 in plasma after administration of the S(+) form (chiral conversion in vivo) ([1]; 5 minutes to 24 hours after intravenous administration, cynomolgus monkeys): not detected
- half-life ([1]; cynomolgus monkey): 2.4 h
- AUC [1, 4]: 30000 ng·h/mL
- more likely to be retained in blood than the R(−) form of MA5 ([1]; from AUC values, intravenous 1 mg/kg, cynomolgus monkeys): 2.5 times
- AUC [1]: 30000 ng·h/mL
- ke [1]: 0.29 h⁻¹

Source: patent publication US20240270692A1, “S(+) FORM OF 4-(2,4-DIFLUOROPHENYL)-2-(1H-INDOL-3-YL)-4-OXO-BUTANOIC ACID” (TOHOKU UNIVERSITY, priority 2021, published 2024)
